These results are taken from US20240336657A1, “G-ALPHA-S PEPTIDE INHIBITORS AND USES THEREOF” (The Regents of the University of California, priority 2021, published 2024).

Assay [1] deals with T1, GTP- and GppNHp-bound Gαs Q227L mutant (Homo sapiens, UniProt P63092, Q227L).
T1 construct: made in house; host or cells: Escherichia coli BL21(DE3)
The experiment in a line: Adenylyl cyclase activation assay with oncogenic mutant. The class given is biochemical. An excerpt:
Gαs is one of the most frequently mutated G proteins in human cancer. Hotspot mutations in Gαs (Q227) disrupt its GTPase activity, thereby locking Gαs in the GTP-bound active conformation (Zachary et al., 1990).

For another assay, the target named is Gαs (Homo sapiens, UniProt P63092). The experiment in a line: Adenylyl cyclase activity assay in HEK293 cell membranes, β2AR stimulated by isoproterenol. It is filed as biochemical. On the set-up: endogenous in cells; host or cells: HEK293 cell membranes. To be noted: GTP/GDP 500/50 μM, 2 hours preincubation, 40 μM isoproterenol, read-out: IC50, inhibition of ISO-stimulated Gαs activity (cAMP). The protocol:
We sought to test the efficacy of GN13 in B2-adrenergic receptor (β2AR) mediated second messenger stimulation in cell membranes. Membrane anchored GDP-bound Gαs is inhibited by Gβγ in the resting state. It can undergo GPCR mediated GDP to GTP exchange upon agonist stimulation (Weis and Kobilka, 2018). The presence of GN13 could potentially capture the newly generated GTP-bound Gαs and inhibit its activation (FIG. 17E). To test this idea, we incubated cell membranes prepared from HEK293 cells with GN13 and examined cAMP accumulation with or without stimulation of β2-adrenergic receptor (β2AR) by isoproterenol (ISO).
GN13 inhibition of Gαs proteins in HEK293 cell membranes (FIG. 17F and FIG. 18F).
a. Cell membrane preparation: HEK293cells, GNAS KO HEK293 cells were plated two day before transfection at a density of 1M cells per 10 cm plate. […] The protein concentrations were measured using BCA, and were normalized to 750 μg/mL. […] The cAMP concentrations were measured by the LANCE Ultra cAMP kit. […]
A cAMP standard curve was generated in the same plate using the 50 μM cAMP standard in the kit. […] 10 μL of each diluted sample was mixed with 5 μL of 4× Eu-cAMP tracer and 5 μL of 4× ULight-anti-cAMP in a white, opaque Optiplate-384 microplate, incubated for 1 hour at room temperature, and the time-resolved fluorescence resonance energy transfer (TR-FRET) signals were read on a Spark 20M plate reader. […]

Positions of bridges follow the written chain, without caps; N, C: chain ends. Non-standard residues stand in square brackets, D forms with d. Residues, ends and D or L forms follow the SMILES beside them.

T1 sequence (P63092 7-380 isoform P63092-2 Q213L limits assumed): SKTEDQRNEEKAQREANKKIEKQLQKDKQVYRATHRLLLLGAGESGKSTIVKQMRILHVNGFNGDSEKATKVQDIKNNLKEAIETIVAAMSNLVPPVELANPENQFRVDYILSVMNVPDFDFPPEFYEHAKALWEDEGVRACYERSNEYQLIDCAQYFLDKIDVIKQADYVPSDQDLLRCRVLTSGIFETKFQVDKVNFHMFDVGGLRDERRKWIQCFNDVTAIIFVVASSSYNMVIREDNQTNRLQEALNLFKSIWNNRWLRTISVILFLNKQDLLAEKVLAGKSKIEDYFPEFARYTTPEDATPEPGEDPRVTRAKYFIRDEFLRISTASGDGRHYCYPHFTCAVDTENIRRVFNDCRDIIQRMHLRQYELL
Sequence of Gαs (P63092 whole entry): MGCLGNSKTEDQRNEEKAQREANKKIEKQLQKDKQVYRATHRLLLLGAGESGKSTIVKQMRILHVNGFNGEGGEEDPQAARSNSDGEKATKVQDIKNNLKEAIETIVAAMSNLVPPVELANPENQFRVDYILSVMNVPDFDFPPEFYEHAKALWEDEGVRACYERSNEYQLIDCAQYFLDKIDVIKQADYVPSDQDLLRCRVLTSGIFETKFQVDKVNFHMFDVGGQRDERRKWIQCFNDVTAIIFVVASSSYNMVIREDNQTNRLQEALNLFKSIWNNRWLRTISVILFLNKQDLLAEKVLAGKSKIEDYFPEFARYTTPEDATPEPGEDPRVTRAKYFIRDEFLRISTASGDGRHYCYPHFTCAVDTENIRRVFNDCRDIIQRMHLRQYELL

Regarding `CC[C@H](C)[C@@H]1NC(=O)[C@H](C)NC(=O)[C@H](Cc2ccc(O)cc2)NC(=O)[C@H](C(C)C)NC(=O)[C@H](CO)NC(=O)[C@H](CCC(=O)O)NC(=O)[C@H](Cc2ccccc2)NC(=O)[C@@H](Cc2ccc(O)cc2)NC(=O)CSC[C@@H](C(=O)NCC(N)=O)NC(=O)[C@H](CC(C)C)NC(=O)[C@H]([C@@H](C)O)NC(=O)CNC(=O)[C@H](Cc2c[nH]c3ccccc23)NC1=O` [GN13] ({CH2CO}-[dY]FESVYAIWGTLCG-NH2; thioether N-13), the “inhibition of Gαs Q227L mutant in the adenylyl cyclase activation assay” value in assay [1] is recorded as “inhibited”. Further, the IC50 (in general, the concentration that gives 50% inhibition) on Gαs was found to be 12.2 ± 2.51 µM.
